Experimental data reported in paper PMC6102592, “Synthesis of New Benzothiazole Acylhydrazones as Anticancer Agents” (Molecules : A Journal of Synthetic Chemistry and Natural …, 2018).

Experiments:
[1] = system: HT-29 (Human colorectal adenocarcinoma cell line); test: MTT cytotoxicity test, HT-29; assay type: cell-based; conditions: Homo sapiens, HT-29, 24 h incubation
Method: (§1) MTT assay, depending on the capability of metabolically active cells that change the pale yellow MTT colour to a spectrophotometrically measured blue formazan salt, is one of the most favoured cytotoxicity tests. We assessed the antitumor potential of new benzothiazole-acylhydrazones on A549, C6, MCF-7, and HT-29 cell lines with various concentrations (1 mM, 0.316 mM, 0.1 mM, 0.0316 mM, 0.01 mM, 0.00316 mM, 0.001 mM, 0.000316 mM). In addition, the cytotoxic activities of compounds 4a–4j were evaluated against healthy NIH3T3 cells, owing to show the selectivity towards carcinogenic cells. The IC50 values of the compounds against cell lines are represented in Table 1.
(§2) Metabolic activity of viable cells was measured by MTT assay based on the reduction of 3-(4,5-dimethylthiazol-2-yl)-2,5-diphenyltetrazolium salt to a formazan product, which can be quantified spectrophotometrically to determine the percent of viable cells.
(§3) Anticancer activities of new benzothiazole acylhydrazones derivatives were evaluated against A549 C6, MCF-7 and HT-29 cell lines. The selectivity of their cytotoxic effects was evaluated on NIH/3T3 mouse embryonic fibroblast cells. NIH/3T3 cells were incubated in DMEM supplemented with fetal calf serum, penicillin (100 IU/mL), streptomycin ([…]) and 7.5% NaHCO3 at 37 °C in a humidified atmosphere of 95% air and 5% CO2. Carcinogenic cells were incubated in RPMI medium supplemented with fetal calf serum, penicillin (100 IU/mL), streptomycin ([…]) and 7.5% NaHCO3 at 37 °C in a humidified atmosphere of 95% air and 5% CO2. All cell lines were seeded at a density of 1 × 10^4 cells into the 96-well plates. After 24 h of incubating period, the culture mediums were removed and test compounds were added at concentrations of 0.000316–1 mM. After a 24 h incubation period, OD of samples were measured by a microplate reader (Biotek, Winooski, VT, USA) at 540 nm. Inhibition % at concentrations was determined using the formula below and IC50 values were calculated by nonlinear regression analysis using the SigmaPlot v.10 package program (Manufacturer, City, US State abbrev. if applicable, Country).

[2] = system: A549 (Human lung adenocarcinoma epithelial cell line); test: MTT cytotoxicity test, A549; assay type: cell-based; conditions: Homo sapiens, A549, 24 h incubation
Method: as §1, §2, §3

[3] = system: C6 (Rat brain glioma cell line); test: MTT cytotoxicity test, C6; assay type: cell-based; conditions: Rattus norvegicus, Glioma cell, 24 h incubation
Method: as §1, §2, §3

C6 cell line = test: Flow cytometric analysis (Annexin V-FITC/PI); assay type: cell-based, Rat
Excerpt: In the therapy of cancer, apoptosis, or programmed cell death, is one of the distinguished mechanisms of cytotoxic agents. It is an important approach to express the cell death pathway and most of the anticancer drugs induce apoptosis in tumor cells. Annexin V-FITC is a reagent that can detect and measure quantitate of apoptotic cells by flow cytometry. Staining cells with PI and Annexin V-FITC show the differences between live, apoptotic, dead, and late apoptotic or necrotic cells. Thus, this method provides evidence on the pathway of cell death.
Death pathway of the carcinogenic cell lines was detected by Annexin V-FITC Apoptosis Detection Kit (BD, Pharmingen, City, US State abbrev. if applicable, Country) as reported in the manufacturer’s instructions. […] After 24 h incubation period, cells were harvested by centrifugation at 1200 rpm for 5 min. at room temperature, rinsed with cold water twice and then suspended at 1 × 10^6 cells/mL concentration in Annexin V-FITC binding buffer. Propidium iodide ([…]) and annexin V-FITC ([…]) were added for staining the cells and the fluorescence measurements was performed using a flow cytometer. FCSExpress software (version, Manufacturer, City, US State abbrev. if applicable, Country) was used to display the percent of normal and apoptotic cells at different stages. […] The experiments were carried out in triplicate.

[4] = system: DNA synthesis of C6 cells; test: DNA synthesis inhibition assay (BrdU cell proliferation); assay type: cell-based, Rat; conditions: C6, IC50/4 to 4 × IC50, 24 h
Method: This immunostaining assay is related to detecting the attendance of BrdU into nuclear DNA instead of thymidine during S-phase of the cell cycle using specific anti-BrdU antibodies. Thus, this study was performed to evaluate inhibitory effects of compounds 4d, 4e, and 4h on proliferation of C6 cell lines. […] Figure 2 represents the DNA synthesis inhibitory effect of compounds 4d, 4e, and 4h on C6 cells.
The BrdU cell proliferation method was performed to analyse the effects of compounds 4d, 4e and 4h on proliferation of C6 cells. C6 cells were seeded into the 96-well plates at a density of 1 × 10^4 cells. […] At the end of the incubation period, BrdU solution was added and cells were reincubated for 2 h at 37 °C. Anti-BrdU-POD ([…]) was added and the mixture was incubated for 90 min. Microplates were washed with PBS for three times. After adding substrate solution, the mixture was incubated for 15 min. OD of the wells were determined at 492 nm.

[5] = system: NIH3T3 (Mouse embryo fibroblast cell line); test: MTT cytotoxicity test, healthy NIH3T3 cells; assay type: cell-based; conditions: Mus musculus, NIH3T3; MTT, 24 h incubation, healthy cells
Method: as §1, §2, §3

[6] = system: MCF-7 (Human breast adenocarcinoma cell line); test: MTT cytotoxicity test, MCF-7; assay type: cell-based; conditions: Homo sapiens, MCF7, 24 h incubation
Method: as §1, §2, §3

## COc1ccc2sc(SCC(=O)NN=Cc3ccc(N4CCCC(C)C4)cc3)nc2c1 (stereo not shown) [Compound 4h, 2-((5-Methoxybenzo[d]thiazol-2-yl)thio)-N’-(4-(3-methylpiperidin-1-yl)benzylidene)acetohydrazide]
[1]
  IC50: > 1000 µM
[2]
  IC50: > 1000 µM
[3]
  IC50: 30 µM
C6 cell line; C6, 2 × IC50 (0.06 mM), 24 h
  Q1 percentage of necrotic cells: 5.4%
  Q2 percentage of late apoptotic cells: 10.5%
  Q3 percentage of viable cells: 75.2%
  Q4 percentage of early apoptotic cells: 8.9%
C6 cell line; C6, IC50 (0.03 mM), 24 h
  Q1 percentage of necrotic cells: 8.6%
  Q2 percentage of late apoptotic cells: 7.4%
  Q3 percentage of viable cells: 79.4%
  Q4 percentage of early apoptotic cells: 4.6%
C6 cell line; C6, IC50/2 (0.015 mM), 24 h
  Q1 percentage of necrotic cells: 10.8%
  Q2 percentage of late apoptotic cells: 4.9%
  Q4 percentage of early apoptotic cells: 0.3%
C6 cell line; C6, at IC50 concentrations, 24 h (sum of Q2 and Q4)
  percentages of apoptotic cells: 12.0%
C6 cell line; Rattus norvegicus, C6, IC50/2 (0.015 mM), 24 h, read-out: Q3 percentage of viable cells
  viability at 15 µM: 84.1%
[4]
  DNA synthesis inhibitory activity compared with cisplatin: could not display the same ability as compounds 4d and 4e to inhibit DNA synthesis
[5]
  IC50: 100 µM
[6]
  IC50: > 1000 µM
